Results as given in patent US9901583B2, “Method of treating non-small cell lung cancer and/or small cell lung cancer using thienotriazolodiazepine compounds” (ONCOETHIX GMBH, priority 2014, dated 2018).
pIC50, pKi: −log10 of the molar value. “And” between values parts separate entries of the source, which are not always exact repeats. Equal entries are not always repeated.

Columns and labels:
H3122 cells = test: H3122 tumor-bearing mice; type: in vivo, male athymic NMRI nude mice; details: 3 weeks of treatment
Method: In vivo studies: 5×10^6 H3122 cells were injected in the flank of male athymic NMRI nude mice, and mice were randomized to 3 groups (8 mice/group) when tumor volume reach 100 mm^3; vehicle (PBS, once daily, oral continuous), Compound (1-1) (50 mg/kg/bidaily, gavage, continuous), or crizotinib (25 mg/kg/daily, gavage, continuous).

[1] = Oral exposure in the rat (pharmacokinetics); type: in vivo, Sprague Dawley rats; details: 1 mg/kg intravenous, rats
Method: The oral bioavailability of three formulations of solid dispersions of compound (1-1) was determined in rats. The three dispersions chosen were the 25% dispersion of compound (1-1) in PVP, the 25% dispersion of compound (1-1) in HPMCAS-MG, and the 50% dispersion of compound (1-1) in HPMCAS-MG. The animals used in the study were Specific Pathogen Free (SPF) Hsd:Sprague Dawley rats obtained from the Central Animal Laboratory at the University of Turku, Finland. The rats were originally purchased from Harlan, The Netherlands. The rats were female and were ten weeks of age, and 12 rats were used in the study. […]
The oral dosing solutions containing the 25% dispersion of compound (1-1) in PVP, the 25% dispersion of compound (1-1) in HPMCAS-MG, and the 50% dispersion of compound (1-1) in HPMCAS-MG were prepared by adding a pre-calculated amount of sterile water for injection to containers holding the dispersion using appropriate quantities to obtain a concentration of 0.75 mg/mL of compound (1-1). […]
Pharmacokinetic parameters were calculated with the Phoenix WinNonlin software package (version 6.2.1, Pharsight Corp., CA, USA) with standard noncompartmental methods. The elimination phase half-life (t1/2) was calculated by least-squares regression analysis of the terminal linear part of the log concentration-time curve. […]

H2226 = test: Cell cycle analysis (propidium iodide, FACScan); type: cell-based; details: H2226, 24 h exposure at 500 nM
H2228 cells = test: Combination with crizotinib, Chou-Talalay combination index; type: cell-based; details: 48 h concomitant exposure, dihydrate
Method: (§1) Protein levels were analyzed by Western Blot with commercial antibodies; RT-PCR was done with Fast SYBR Green Master Mix on a StepOnePlus Real-Time PCR System at baseline, 4 and 24 h post-treatment. For cell cycle analysis cells were stained with propidium iodide and DNA content analyzed with a FACScan flow cytometer. Compound (1-1) was combined with the targeted agents everolimus and crizotinib and the combination index (CI) determined by the Chou-Talalay method.
(§2) Materials and Methods. Five established NSCLC cell lines, HOP62, HOP92, A549, H2228, and H3122 harboring different oncogenic mutations for KRAS, LKB I, TP53 and ALK (FIG. 13) were exposed to increasing doses of compound (1-1) (OncoEthix SA, Switzerland) for 72 h and cell proliferation was evaluated by MTT assays. Results represent the mean±95% CI of at least 3 independent experiments performed in triplicate. Protein levels were analyzed by Western blot using commercial antibodies. For cell cycle analysis cells were stained with PI and analyzed using a FACScan flow cytometer after 24 h of treatment. […] Concomitant compound (1-1) combination studies were performed in cell lines exposed for 48 h to increasing doses of compound (1-1) alone or in combination with everolimus or crizotinib, and assessed using the Chou & Talalay method. Combination Index (CI) was determined by median effect plot analysis using CalcuSyn software. […]

H3122 = test: Cell cycle analysis (propidium iodide, FACScan); type: cell-based; details: H3122, 24 h exposure at 500 nM
Method: as §1, §2

HOP92 = test: Cell cycle analysis (propidium iodide, FACScan); type: cell-based; details: HOP92, 24 h exposure at 500 nM
Method: as §1, §2

DMS79 cells = test: MTT assay, growth inhibition; type: cell-based; details: Homo sapiens, DMS-79, 72 h exposure
Method: (§3) Protein levels were analyzed by Western Blot using commercial antibodies and RT-PCR was performed with Fast SYBR Green Master Mix on a StepOnePlus Real-Time PCR System at baseline, then 4 and 24 h post-treatment. For cell cycle analysis, cells were stained with propidium iodide and analyzed for DNA content with a FACScan flow cytometer.
(§4) Cell lines were exposed to increasing doses of compound (1-1) for 72 hours, and cell proliferation was evaluated with the MTT assay. GI50 and Emax values were calculated with the equation for sigmoidal dose response using Prism 5.00 for Windows. Results represent the mean±95% CI of at least 3 independent experiments performed in triplicate.
(§5) For cell cycle analysis, cells were stained with propidium iodide and analyzed with a FACScan flow cytometer. RNA was isolated after treatment with DMSO or OTX015 (500 nM) for 2, 4, 8 or 12 and 24 h and gene expression profiles (GEP) were obtained in all NSCLC and 2 SCLC (H82 and DMS114) cell lines with Illumina HumanHT-12 Expression BeadChips. Data mining was done with LIMMA, GSEA, Metacore.

H69 cells = test: MTT assay, growth inhibition; type: cell-based; details: Homo sapiens, NCI-H69, 72 h exposure
Method: as §3, §4, §5

H82 cells = test: MTT assay, growth inhibition; type: cell-based; details: Homo sapiens, NCI-H82, 72 h exposure
Method: as §3, §4, §5

DMS114 cells = test: MTT assay, growth inhibition; type: cell-based; details: Homo sapiens, DMS-114, read-out: GI50 (95% CI), 72 h exposure
Method: as §3, §4, §5

[2] = test system: NSCLC cell lines (H2228, H3122, A549, HOP62, HOP92); test: MTT assay, growth inhibition, NSCLC panel; type: cell-based; details: 72 h, 72 h exposure, 4 of 5 NSCLC cell lines
Method: as §1, §2

FKBP12 = FKBP12 (Homo sapiens, UniProt P62942); details: cited from earlier work
PI3K/mTOR = details: cited from earlier work
[3] = test system: Akt phosphorylation on S473; details: cited from earlier work
[4] = test system: Akt phosphorylation on T308; details: cited from earlier work
PDGFR = details: read-out: IC50 PDGFR; cited from earlier work
PI3Kβ (p110β) = PI3Kβ (p110β) (Homo sapiens, UniProt P42338); details: cited from earlier work
PI3Kγ (p110γ) = PI3Kγ (p110γ) (Homo sapiens, UniProt P48736); details: cited from earlier work
Sequence of PI3Kγ (p110γ) (P48736 whole entry, species assumed): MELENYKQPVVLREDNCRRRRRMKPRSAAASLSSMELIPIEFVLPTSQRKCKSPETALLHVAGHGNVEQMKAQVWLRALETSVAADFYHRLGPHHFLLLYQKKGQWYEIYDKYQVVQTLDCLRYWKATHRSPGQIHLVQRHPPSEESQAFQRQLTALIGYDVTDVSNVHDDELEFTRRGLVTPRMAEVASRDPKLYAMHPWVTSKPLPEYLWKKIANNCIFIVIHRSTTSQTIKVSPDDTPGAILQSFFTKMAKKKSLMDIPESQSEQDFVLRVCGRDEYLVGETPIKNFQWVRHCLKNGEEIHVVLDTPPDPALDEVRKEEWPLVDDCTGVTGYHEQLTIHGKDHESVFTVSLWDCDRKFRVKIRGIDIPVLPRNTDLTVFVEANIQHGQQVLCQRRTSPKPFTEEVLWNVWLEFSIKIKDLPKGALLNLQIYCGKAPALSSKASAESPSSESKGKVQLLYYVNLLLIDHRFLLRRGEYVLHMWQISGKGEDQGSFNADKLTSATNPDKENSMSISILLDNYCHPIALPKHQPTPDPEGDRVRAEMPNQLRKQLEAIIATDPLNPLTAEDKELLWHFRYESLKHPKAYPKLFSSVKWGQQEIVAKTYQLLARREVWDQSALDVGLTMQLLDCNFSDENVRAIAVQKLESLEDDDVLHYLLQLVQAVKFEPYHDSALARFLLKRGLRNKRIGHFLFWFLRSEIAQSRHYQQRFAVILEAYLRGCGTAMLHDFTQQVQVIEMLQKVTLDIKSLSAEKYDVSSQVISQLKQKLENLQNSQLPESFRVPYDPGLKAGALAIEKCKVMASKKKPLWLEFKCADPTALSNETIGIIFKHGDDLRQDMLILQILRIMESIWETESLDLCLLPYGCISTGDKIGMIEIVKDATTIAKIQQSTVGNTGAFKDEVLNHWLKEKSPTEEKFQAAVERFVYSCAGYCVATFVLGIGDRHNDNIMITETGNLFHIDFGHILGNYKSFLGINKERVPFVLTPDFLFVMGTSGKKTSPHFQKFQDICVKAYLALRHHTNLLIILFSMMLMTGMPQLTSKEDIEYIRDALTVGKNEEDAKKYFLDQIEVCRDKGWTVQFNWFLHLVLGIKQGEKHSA

Sequence of PI3Kβ (p110β) (P42338 whole entry, species assumed): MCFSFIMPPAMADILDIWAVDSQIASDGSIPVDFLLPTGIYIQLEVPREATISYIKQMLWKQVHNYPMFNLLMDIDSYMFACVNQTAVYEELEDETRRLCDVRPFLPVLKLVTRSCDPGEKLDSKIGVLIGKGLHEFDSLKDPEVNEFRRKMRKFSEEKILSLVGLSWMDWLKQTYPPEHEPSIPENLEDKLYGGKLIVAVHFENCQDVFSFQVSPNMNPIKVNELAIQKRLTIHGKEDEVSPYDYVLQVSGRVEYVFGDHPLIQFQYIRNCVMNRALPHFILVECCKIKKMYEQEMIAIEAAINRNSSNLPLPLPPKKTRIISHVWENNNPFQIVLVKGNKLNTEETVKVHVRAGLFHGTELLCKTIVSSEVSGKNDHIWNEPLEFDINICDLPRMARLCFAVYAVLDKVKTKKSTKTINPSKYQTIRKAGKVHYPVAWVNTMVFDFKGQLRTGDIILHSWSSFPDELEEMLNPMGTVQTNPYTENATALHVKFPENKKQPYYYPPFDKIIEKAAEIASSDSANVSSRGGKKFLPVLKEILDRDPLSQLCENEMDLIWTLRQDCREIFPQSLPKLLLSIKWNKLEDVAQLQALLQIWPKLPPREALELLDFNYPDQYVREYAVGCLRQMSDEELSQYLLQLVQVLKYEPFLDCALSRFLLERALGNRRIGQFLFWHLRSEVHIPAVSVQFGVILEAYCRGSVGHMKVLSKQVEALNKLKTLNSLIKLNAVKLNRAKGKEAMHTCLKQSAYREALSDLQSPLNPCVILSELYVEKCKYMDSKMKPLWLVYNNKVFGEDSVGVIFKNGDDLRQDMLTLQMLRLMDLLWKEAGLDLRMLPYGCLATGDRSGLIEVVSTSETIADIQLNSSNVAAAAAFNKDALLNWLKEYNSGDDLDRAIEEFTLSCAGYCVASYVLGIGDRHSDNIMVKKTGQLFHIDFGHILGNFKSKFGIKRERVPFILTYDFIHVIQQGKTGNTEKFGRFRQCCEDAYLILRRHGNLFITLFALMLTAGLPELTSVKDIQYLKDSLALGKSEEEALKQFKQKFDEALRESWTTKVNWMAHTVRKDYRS
Sequence of PI3Kβ (p110β) (P27986 whole entry partner, species assumed): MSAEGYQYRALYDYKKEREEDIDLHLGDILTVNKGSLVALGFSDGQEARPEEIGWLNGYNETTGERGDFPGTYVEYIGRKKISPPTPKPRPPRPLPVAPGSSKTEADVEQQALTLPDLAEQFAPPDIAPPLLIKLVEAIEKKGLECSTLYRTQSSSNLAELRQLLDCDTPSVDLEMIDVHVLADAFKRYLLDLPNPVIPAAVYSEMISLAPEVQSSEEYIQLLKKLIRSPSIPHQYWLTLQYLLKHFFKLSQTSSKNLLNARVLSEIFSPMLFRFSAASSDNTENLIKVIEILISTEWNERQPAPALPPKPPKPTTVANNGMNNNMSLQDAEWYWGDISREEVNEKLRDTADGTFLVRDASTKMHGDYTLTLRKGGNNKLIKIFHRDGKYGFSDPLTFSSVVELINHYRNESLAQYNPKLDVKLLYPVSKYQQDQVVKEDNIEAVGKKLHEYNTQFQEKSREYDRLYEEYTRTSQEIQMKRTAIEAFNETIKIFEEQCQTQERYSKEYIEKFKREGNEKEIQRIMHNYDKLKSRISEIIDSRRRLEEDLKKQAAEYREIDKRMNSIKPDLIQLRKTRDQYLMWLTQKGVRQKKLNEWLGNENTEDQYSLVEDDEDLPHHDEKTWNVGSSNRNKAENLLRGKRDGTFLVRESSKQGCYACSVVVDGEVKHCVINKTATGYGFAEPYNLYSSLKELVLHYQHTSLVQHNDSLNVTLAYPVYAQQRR
Sequence of FKBP12 (P62942 whole entry, species assumed): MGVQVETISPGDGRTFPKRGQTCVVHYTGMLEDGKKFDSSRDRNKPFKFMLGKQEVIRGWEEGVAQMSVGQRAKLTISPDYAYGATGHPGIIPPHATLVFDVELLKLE

Question: For `Cc1sc2c(c1C)C(c1ccc(Cl)cc1)=N[C@@H](CC(=O)Nc1ccc(O)cc1)c1nnc(C)n1-2` [Compound (1-1), 2-[(6S)-4-(4-chlorophenyl)-2,3,9-trimethyl-6H-thienol[3,2-f]-[1,2,4]triazolo[4,3-a][1,4]diazepin-6-yl]-N-(4-hydroxyphenyl)acetamide dihydrate], which weight loss (H3122 cells) is on record?
Answer: no weight loss was observed

Question: And the CI/F [1]?
Answer: 13.4 mL/min/kg

Question: And the “reduction of percent cells in the S phase” value (from here on “reduction of percent cells”) (H2226)?
Answer: 42%

Question: And the “combination index (CI) with crizotinib” value (H2228 cells)?
Answer: 0.98 and 0.9

Question: And the “reduction of percent cells” value (H3122)?
Answer: 52%

Question: What about the “reduction of percent cells” value (HOP92) of the same compound?
Answer: 40%

Question: What about the GI50 (DMS79 cells) of the same compound?
Answer: > 6000 nM

Question: And the GI50 (H69 cells)?
Answer: > 6000 nM

Question: What about the GI50 (H82 cells) of the same compound?
Answer: > 6000 nM

Question: And the GI50 (DMS114 cells)?
Answer: 120 nM

Question: What about the GI50 [2] of the same compound?
Answer: 110 to 940 nM

Question: With `CO[C@H]1C[C@@H]2CC[C@@H](C)[C@@](O)(O2)C(=O)C(=O)N2CCCC[C@H]2C(=O)O[C@H]([C@H](C)C[C@@H]2CC[C@@H](OCCO)[C@H](OC)C2)CC(=O)[C@H](C)/C=C(\C)[C@@H](O)[C@@H](OC)C(=O)[C@H](C)C[C@H](C)/C=C/C=C/C=C/1C` [Everolimus] as the compound, how does the pIC50 (FKBP12) read?
Answer: 8.62 to 8.80

Question: With `COc1ccc(-c2ccc3ncc4c(c3c2)n(-c2ccc(N3CCNCC3)c(C(F)(F)F)c2)c(=O)n4C)cn1` [NVP-BGT226] as the compound, how does the pIC50 (PI3K/mTOR) read?
Answer: 9.00

Question: With `COc1ccc(-c2cc3c(C)nc(N)nc3n([C@H]3CC[C@H](OCCO)CC3)c2=O)cn1` [PF-04691502] as the compound, how does the pIC50 [3] read?
Answer: 8.42

Question: And the pIC50 [4]?
Answer: 8.12

Question: With `Nc1ncnc2c1c(-c1cnc3[nH]ccc3c1)nn2C1CCCC1` [PP-121] as the compound, how does the pIC50 (PDGFR) read?
Answer: 8.70

Question: What does the source list for GSK2126458?
Answer: pKi (PI3Kβ (p110β)): 9.89; pKi (PI3Kγ (p110γ)): 10.62
